Data reported in ChEMBL document CHEMBL1201862, “PubChem BioAssay data set” (2004).
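Following 48 hours of exposure in 96-well plates, responses at five concentrations were used to interpolate endpoints linearly. GI50 marks 50% less growth.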 The source made the active and inactive calls. Cut-off read from the data, not from the text of the source: active = GI50 up to about 1.1 µM and inactive = higher.

What was measured:
Assay in all cases: inhibition of tumour cell growth, NCI panel, 48 h
SF-295 = test system: SF-295
SK-MEL-2 = test system: SK-MEL-2
SNB-78 = test system: SNB-78
SK-MEL-28 = test system: SK-MEL-28
A549 = test system: A549
M14 = test system: M14
UACC-62 = test system: UACC-62
MOLT-4 = test system: MOLT-4
ACHN = test system: ACHN
RPMI-8226 = test system: RPMI-8226
HT-29 = test system: HT-29
UO-31 = test system: UO-31
DMS-273 = test system: DMS-273
DLD-1 = test system: DLD-1
SK-OV-3 = test system: SK-OV-3
OVCAR-4 = test system: OVCAR-4
SN12C = test system: SN12C
KM-20L2 = test system: KM-20L2
CAKI-1 = test system: CAKI-1
HCC 2998 = test system: HCC 2998
HCT-116 = test system: HCT-116
UACC-257 = test system: UACC-257
SR = test system: SR
Malme-3M = test system: Malme-3M
HCT-15 = test system: HCT-15
HL-60 = test system: HL-60
OVCAR-8 = test system: OVCAR-8
XF498 = test system: XF498
RXF 393 = test system: RXF 393
CCRF-CEM = test system: CCRF-CEM
786-0 = test system: 786-0
LXFL 529 = test system: LXFL 529
SNB-19 = test system: SNB-19
SW-620 = test system: SW-620
HOP-18 = test system: HOP-18
HOP-62 = test system: HOP-62
COLO 205 = test system: COLO 205
NCI-H522 = test system: NCI-H522
OVCAR-5 = test system: OVCAR-5
IGROV-1 = test system: IGROV-1
NCI-H460 = test system: NCI-H460
TK-10 = test system: TK-10
SF-268 = test system: SF-268
LOX IMVI = test system: LOX IMVI
EKVX = test system: EKVX
U-251 = test system: U-251
OVCAR-3 = test system: OVCAR-3
NCI-H226 = test system: NCI-H226
NCI-H23 = test system: NCI-H23
SNB-75 = test system: SNB-75
SK-MEL-5 = test system: SK-MEL-5
K562 = test system: K562
KM12 = test system: KM12
DMS-114 = test system: DMS-114
M19-MEL = test system: M19-MEL
A498 = test system: A498
SF-539 = test system: SF-539
RXF 631 = test system: RXF 631
HOP-92 = test system: HOP-92

`CCOC(=O)C1(C#N)C(c2ccccc2)CC(O)(c2ccc(Cl)cc2)C(C(=O)c2ccc(Cl)cc2)C1c1ccccc1` (configuration not stated) was tested, and the GI50 (SF-295) was 41 µM (inactive), the GI50 (SK-MEL-2) was > 100 µM (inactive) and the GI50 (SNB-78) was 82.4 µM (inactive). For the same molecule, the GI50 (SK-MEL-28) was > 100 µM (inactive), the GI50 (A549) was > 100 µM (inactive) and the GI50 (M14) was > 100 µM (inactive). The GI50 (UACC-62) was > 100 µM (inactive), the GI50 (MOLT-4) was 80.4 µM (inactive) and the GI50 (ACHN) was > 100 µM (inactive). For the same molecule, the GI50 (RPMI-8226) was 76.6 µM (inactive), the GI50 (HT-29) was > 100 µM (inactive) and the GI50 (UO-31) was > 100 µM (inactive). For the same molecule, the GI50 (DMS-273) was 67.1 µM (inactive), the GI50 (DLD-1) was > 100 µM (inactive) and the GI50 (SK-OV-3) was 38.6 µM (inactive). The GI50 (OVCAR-4) was > 100 µM (inactive), the GI50 (SN12C) was > 100 µM (inactive) and the GI50 (KM-20L2) was > 100 µM (inactive). The GI50 (CAKI-1) was > 100 µM (inactive), the GI50 (HCC 2998) was > 100 µM (inactive) and the GI50 (HCT-116) was > 100 µM (inactive). The GI50 (UACC-257) was > 100 µM (inactive), the GI50 (SR) was > 100 µM (inactive) and the GI50 (Malme-3M) was > 100 µM (inactive). For the same molecule, the GI50 (HCT-15) was > 100 µM, the GI50 (HL-60) was > 100 µM (inactive) and the GI50 (OVCAR-8) was > 100 µM (inactive). For the same molecule, the GI50 (XF498) was 65.9 µM (inactive), the GI50 (RXF 393) was 37.8 µM (inactive) and the GI50 (CCRF-CEM) was > 100 µM (inactive). The GI50 (786-0) was > 100 µM (inactive), the GI50 (LXFL 529) was 69.5 µM (inactive) and the GI50 (SNB-19) was 34 µM (inactive). The GI50 (SW-620) was > 100 µM (inactive), the GI50 (HOP-18) was > 100 µM (inactive) and the GI50 (HOP-62) was > 100 µM (inactive). For the same molecule, the GI50 (COLO 205) was > 100 µM (inactive), the GI50 (NCI-H522) was 35 µM (inactive) and the GI50 (OVCAR-5) was > 100 µM (inactive). For the same molecule, the GI50 (IGROV-1) was > 100 µM (inactive), the GI50 (NCI-H460) was > 100 µM (inactive) and the GI50 (TK-10) was > 100 µM (inactive). For the same molecule, the GI50 (SF-268) was > 100 µM (inactive), the GI50 (LOX IMVI) was > 100 µM (inactive) and the GI50 (EKVX) was 52.2 µM (inactive). The GI50 (U-251) was > 10 µM (inactive), the GI50 (OVCAR-3) was > 100 µM (inactive) and the GI50 (NCI-H226) was > 100 µM (inactive). The GI50 (NCI-H23) was > 100 µM (inactive), the GI50 (SNB-75) was 21.1 µM (inactive) and the GI50 (SK-MEL-5) was > 100 µM (inactive). For the same molecule, the GI50 (K562) was > 10 µM (inactive), the GI50 (KM12) was 34 µM (inactive) and the GI50 (DMS-114) was > 100 µM (inactive). For the same molecule, the GI50 (M19-MEL) was > 100 µM (inactive).
`CC(CN1CCN(CC(C)Nc2ccnc3cc(Cl)ccc23)CC1)Nc1ccnc2cc(Cl)ccc12` (configuration not stated) was tested, and the GI50 (SF-295) was 19.6 µM (inactive), the GI50 (SNB-78) was 21.1 µM (inactive) and the GI50 (SK-MEL-28) was 1.6 µM (inactive). The GI50 (A549) was 17.8 µM (inactive), the GI50 (M14) was 14.5 µM (inactive) and the GI50 (UACC-62) was 17.9 µM (inactive). For the same molecule, the GI50 (MOLT-4) was 9.38 µM (inactive), the GI50 (ACHN) was 28.8 µM (inactive) and the GI50 (RPMI-8226) was 9.79 µM (inactive). The GI50 (HT-29) was 6.93 µM (inactive), the GI50 (UO-31) was 22.7 µM (inactive) and the GI50 (DMS-273) was 16.3 µM (inactive). The GI50 (DLD-1) was 16.9 µM (inactive), the GI50 (SK-OV-3) was 34 µM (inactive) and the GI50 (OVCAR-4) was 20.2 µM (inactive). For the same molecule, the GI50 (SN12C) was 22.4 µM (inactive), the GI50 (KM-20L2) was 13.4 µM (inactive) and the GI50 (A498) was 18 µM (inactive). The GI50 (CAKI-1) was 35.4 µM (inactive), the GI50 (HCC 2998) was 16.6 µM (inactive) and the GI50 (HCT-116) was 13.4 µM (inactive). The GI50 (UACC-257) was 19.4 µM (inactive), the GI50 (SR) was 1.83 µM (inactive) and the GI50 (SF-539) was 16 µM (inactive). The GI50 (Malme-3M) was 21.2 µM (inactive), the GI50 (HCT-15) was 15.7 µM and the GI50 (HL-60) was 8.93 µM (inactive). The GI50 (RXF 631) was 12.4 µM (inactive), the GI50 (OVCAR-8) was 18.9 µM (inactive) and the GI50 (XF498) was 23.3 µM (inactive). For the same molecule, the GI50 (RXF 393) was 13.2 µM (inactive), the GI50 (CCRF-CEM) was 3.69 µM (inactive) and the GI50 (786-0) was 17.8 µM (inactive). The GI50 (LXFL 529) was 16.6 µM (inactive), the GI50 (SNB-19) was 29 µM (inactive) and the GI50 (HOP-62) was 22.5 µM (inactive). For the same molecule, the GI50 (COLO 205) was 14.4 µM (inactive), the GI50 (NCI-H522) was 20.7 µM (inactive) and the GI50 (OVCAR-5) was 23.2 µM (inactive). The GI50 (NCI-H460) was 14.7 µM (inactive), the GI50 (TK-10) was 23.9 µM (inactive) and the GI50 (SF-268) was 2.81 µM (inactive). For the same molecule, the GI50 (LOX IMVI) was 3.76 µM (inactive), the GI50 (EKVX) was 19 µM (inactive) and the GI50 (U-251) was 18.5 µM (inactive). The GI50 (OVCAR-3) was 22.8 µM (inactive), the GI50 (NCI-H226) was 28.4 µM (inactive) and the GI50 (NCI-H23) was 18.6 µM (inactive). The GI50 (SNB-75) was 16.9 µM (inactive), the GI50 (SK-MEL-5) was 17.5 µM (inactive) and the GI50 (K562) was 2.84 µM (inactive). For the same molecule, the GI50 (KM12) was 13.4 µM (inactive), the GI50 (DMS-114) was 20.2 µM (inactive) and the GI50 (M19-MEL) was 21.8 µM (inactive).
With `OCCN1CCN(CCO)Cc2ccccc2OCCOc2ccccc2C1` the GI50 (SK-MEL-2) was > 100 µM (inactive), the GI50 (SNB-78) was > 100 µM (inactive) and the GI50 (SK-MEL-28) was > 100 µM (inactive). For the same molecule, the GI50 (A549) was > 100 µM (inactive), the GI50 (M14) was > 100 µM (inactive) and the GI50 (MOLT-4) was > 100 µM (inactive). The GI50 (ACHN) was > 100 µM (inactive), the GI50 (RPMI-8226) was > 100 µM (inactive) and the GI50 (HT-29) was 96.8 µM (inactive). The GI50 (UO-31) was > 100 µM (inactive), the GI50 (DMS-273) was > 100 µM (inactive) and the GI50 (DLD-1) was > 100 µM (inactive). For the same molecule, the GI50 (SK-OV-3) was > 100 µM (inactive), the GI50 (OVCAR-4) was > 100 µM (inactive) and the GI50 (SN12C) was > 100 µM (inactive). For the same molecule, the GI50 (KM-20L2) was > 100 µM (inactive), the GI50 (A498) was > 100 µM (inactive) and the GI50 (CAKI-1) was > 100 µM (inactive). For the same molecule, the GI50 (HCT-116) was 51.6 µM (inactive), the GI50 (UACC-257) was > 100 µM (inactive) and the GI50 (SR) was > 100 µM (inactive). For the same molecule, the GI50 (SF-539) was > 100 µM (inactive), the GI50 (Malme-3M) was > 100 µM (inactive) and the GI50 (HCT-15) was > 100 µM. The GI50 (RXF 631) was > 100 µM (inactive), the GI50 (OVCAR-8) was > 100 µM (inactive) and the GI50 (RXF 393) was > 100 µM (inactive). The GI50 (CCRF-CEM) was > 100 µM (inactive), the GI50 (786-0) was > 100 µM (inactive) and the GI50 (LXFL 529) was 64.4 µM (inactive). The GI50 (SNB-19) was > 100 µM (inactive), the GI50 (SW-620) was > 100 µM (inactive) and the GI50 (HOP-92) was > 100 µM (inactive). For the same molecule, the GI50 (HOP-62) was > 100 µM (inactive), the GI50 (COLO 205) was > 100 µM (inactive) and the GI50 (NCI-H522) was > 100 µM (inactive). The GI50 (OVCAR-5) was > 100 µM (inactive), the GI50 (IGROV-1) was > 100 µM (inactive) and the GI50 (NCI-H460) was > 100 µM (inactive). The GI50 (TK-10) was > 100 µM (inactive), the GI50 (SF-268) was > 100 µM (inactive) and the GI50 (LOX IMVI) was 29.8 µM (inactive). For the same molecule, the GI50 (EKVX) was > 100 µM (inactive), the GI50 (U-251) was > 100 µM (inactive) and the GI50 (OVCAR-3) was > 100 µM (inactive). For the same molecule, the GI50 (NCI-H226) was > 100 µM (inactive), the GI50 (NCI-H23) was > 100 µM (inactive) and the GI50 (SNB-75) was 33 µM (inactive). The GI50 (SK-MEL-5) was > 100 µM (inactive), the GI50 (K562) was > 100 µM (inactive) and the GI50 (KM12) was > 100 µM (inactive). For the same molecule, the GI50 (DMS-114) was > 100 µM (inactive) and the GI50 (M19-MEL) was > 100 µM (inactive).
